Laboratory results: ChEMBL document CHEMBL3045881, “(Hetero)aroyl esters of 2-(N-phthalimido)ethanol and analogues: parallel synthesis, anti-HIV-1 activity and cytotoxicity” (Med Chem Res, 2010)
Calls of active or inactive are those of the source. No cut-off for these calls is given here.

What was measured:
[1] = Cytotoxicity against mock infected Homo sapiens (human) MT4 cells assessed as cell viability by MTT assay; assay type: cell-based
[2] = system: Human immunodeficiency virus 1; assay: Antiviral activity against wild type Human immunodeficiency virus 1 infected human MT4 cells assessed as inhibition of virus-induced cytopathic effect after 4 days by MTT assay; assay type: functional, organism-based; conditions: Human immunodeficiency virus 1, MT4, 96 h
[3] = system: Human immunodeficiency virus 1; assay: Antiviral activity against efavirenz-resistant Human immunodeficiency virus 1 harboring reverse transcriptase K103R, V179D, P225H triple mutant infected human MT4 assessed as inhibition of virus-induced cytopathic effect after 4 days by MTT assay; assay type: functional, organism-based
[4] = system: Human immunodeficiency virus 1; assay: Antiviral activity against Human immunodeficiency virus 1 harboring reverse transcriptase K103N, Y181C double mutant infected human MT4 assessed as inhibition of virus-induced cytopathic effect after 4 days by MTT assay; assay type: functional, organism-based
[5] = system: Human immunodeficiency virus 1; assay: Antiviral activity against Human immunodeficiency virus 1 harboring reverse transcriptase Y181C mutant infected human MT4 assessed as inhibition of virus-induced cytopathic effect after 4 days by MTT assay; assay type: functional, organism-based; conditions: Human immunodeficiency virus 1, 96 h

Compound | CC50 [1] [µM] | EC50 [2] [µM] | Activity [3] | Activity [4] | EC50 [5] [µM]
O=C(OCCN1C(=O)c2ccccc2C1=O)c1cccnc1Cl | > 100 | > 100 | – | – | –
CC(C)(C)c1ccc2c(c1)C(=O)N(CCOC(=O)c1cc(F)ccc1F)C2=O | > 100 | > 100 | – | – | –
O=C(OCCN1C(=O)c2ccccc2C1=O)c1cccc(F)c1 | > 100 | 75 | – | – | –
CCCCCc1ccc(C(=O)OCCN2C(=O)c3ccccc3C2=O)cc1 | > 100 | 14 | – | – | –
CCC(C(=O)OCCN1C(=O)c2ccccc2C1=O)c1ccccc1 (racemic) | > 100 | 16 | – | – | –
O=C(OCCN1C(=O)c2ccccc2C1=O)c1ccc(Br)cc1 | > 100 | > 100 | – | – | –
O=C(OCCS(=O)(=O)c1ccccc1)c1ccc(Cl)c(Cl)c1 | 19 | > 19 | – | – | –
O=C(OCCN1C(=O)[C@H]2CCCC[C@H]2C1=O)c1ccc(Cl)c([N+](=O)[O-])c1 | 28 | > 28 | – | – | –
O=C(OCCN1C(=O)c2ccccc2C1=O)c1cc(F)ccc1Br | > 100 | 35 | inactive | inactive | 90
Cc1ccc2c(c1)C(=O)N(CCOC(=O)c1cc(F)ccc1F)C2=O | > 100 | > 100 | – | – | –
O=C(OCCN1C(=O)c2ccccc2C1=O)c1cccc(Cl)c1 | > 100 | 93 | – | – | –
O=C(OCCN1C(=O)c2ccccc2C1=O)c1ccccc1[N+](=O)[O-] | > 100 | 80 | – | – | –
O=C(OCCN1C(=O)c2ccccc2C1=O)c1cc(F)cc(F)c1 | > 100 | > 100 | – | – | –
O=C(OCCN1C(=O)[C@H]2CCCC[C@H]2C1=O)c1cc(F)ccc1F | > 100 | > 100 | – | – | –
Cc1cc(C(=O)OCCN2C(=O)c3ccccc3C2=O)ccc1Br | > 100 | 60 | – | – | –
O=C(OCCN1C(=O)c2ccccc2C1=O)c1ccc(F)c(F)c1 | > 100 | > 100 | – | – | –
Cc1cc(C(=O)OC2Cc3cccc4cccc2c34)ccc1Br (racemic) | 8 | > 100 | – | – | –
O=C(OC1Cc2cccc3cccc1c23)c1ccc(Cl)c(Cl)c1 (racemic) | 42 | > 100 | – | – | –
O=C(OCCOc1ccc([N+](=O)[O-])cc1)c1ccc(Cl)c([N+](=O)[O-])c1 | 47 | > 47 | – | – | –
O=C(OCCN1C(=O)c2ccccc2C1=O)c1cc(C(F)(F)F)ccc1F | > 100 | > 100 | – | – | –
O=C(OCN1C(=O)c2ccccc2C1=O)c1ccc(Cl)c([N+](=O)[O-])c1 | 11 | > 11 | – | – | –
Cc1cccc(C(=O)OCCN2C(=O)c3ccccc3C2=O)c1 | > 100 | 82 | – | – | –
O=C(OCCN1C(=O)[C@H]2CC=CC[C@H]2C1=O)c1ccc(Cl)c([N+](=O)[O-])c1 | 36 | > 36 | – | – | –
O=C(OCCN1C(=O)c2ccccc2C1=O)c1ccc([N+](=O)[O-])cc1Cl | > 100 | 15 | – | – | –
O=C(OCCCN1C(=O)c2ccccc2C1=O)c1cc(F)ccc1F | > 100 | > 100 | – | – | –
O=C(/C=C/c1ccccc1)OCCN1C(=O)c2ccccc2C1=O | > 100 | 50 | – | – | –
O=C(OCCN1C(=O)c2ccccc2C1=O)c1c(F)cccc1F | > 100 | 49 | – | – | –
CC(CN1C(=O)c2ccccc2C1=O)OC(=O)c1cc(F)ccc1F (racemic) | > 100 | > 100 | – | – | –

Compound | CC50 [1] [µM] | EC50 [2] [µM] | Activity [3] | Activity [4] | EC50 [5] [µM]
Cc1ccc2c(c1)C(=O)N(CCOC(=O)c1ccc(Cl)c([N+](=O)[O-])c1)C2=O | 81 | > 81 | – | – | –
O=C(OCCc1c[nH]c2ccccc12)c1ccc(Cl)c([N+](=O)[O-])c1 | 6 | > 6 | – | – | –
CC(C)(C)c1ccc(C(=O)OCCN2C(=O)c3ccccc3C2=O)cc1 | 92 | > 92 | – | – | –
O=C(OCCN1C(=O)c2ccccc2C1=O)c1ccc(Cl)c(Cl)c1 | > 100 | 0.7 | – | – | –
O=C(OCCCN1C(=O)c2ccccc2C1=O)c1ccc(Cl)c([N+](=O)[O-])c1 | > 100 | > 100 | – | – | –
O=C(OCCN1C(=O)c2ccccc2C1=O)c1cc(Cl)ccc1F | > 100 | > 100 | – | – | –
O=C(OC1Cc2cccc3cccc1c23)c1ccc(Cl)c([N+](=O)[O-])c1 (racemic) | 1.6 | > 100 | – | – | –
O=C(OCCN1C(=O)[C@H]2CC=CC[C@H]2C1=O)c1cc(F)ccc1F | > 100 | > 100 | – | – | –
O=C(OCCN1C(=O)c2ccccc2C1=O)c1cc([N+](=O)[O-])ccc1Cl | 30 | > 30 | – | – | –
O=C(OCCN1C(=O)c2ccccc2C1=O)c1ccc(Cl)nc1 | > 100 | > 100 | – | – | –
O=C(OCCN1C(=O)c2ccccc2C1=O)c1cc(F)ccc1F | > 100 | 0.2 | – | – | –
O=C(OCN1C(=O)c2ccccc2C1=O)c1cc(F)ccc1F | > 100 | > 100 | – | – | –
CC(CN1C(=O)c2ccccc2C1=O)OC(=O)c1ccc(Cl)c([N+](=O)[O-])c1 (racemic) | 34 | > 34 | – | – | –
O=C(OCCN1C(=O)c2ccccc2C1=O)c1ccc2ccccc2c1 | > 100 | > 100 | – | – | –
O=C(OCCN1C(=O)c2ccccc2C1=O)c1ccccc1 | > 100 | 55 | – | – | –
O=C(OCCN1C(=O)c2ccccc2C1=O)c1cc(Cl)cc(Cl)c1 | > 100 | 27 | – | – | –
O=C(OCCN1C(=O)c2ccccc2C1=O)c1cccc(F)c1F | > 100 | > 100 | – | – | –
O=C(OCCN1C(=O)c2ccccc2C1=O)c1ccc(Cl)c([N+](=O)[O-])c1 | > 100 | 0.7 | – | – | –
O=C(OCCOc1ccc(Br)cc1)c1ccc(Cl)c([N+](=O)[O-])c1 | 59 | > 59 | – | – | –
O=C(OCCN1C(=O)c2ccccc2C1=O)c1cc([N+](=O)[O-])ccc1F | > 100 | > 100 | – | – | –
O=C(OCCN1C(=O)c2ccccc2C1=O)c1ccc(F)cc1F | > 100 | > 100 | – | – | –
Cc1cc(C(=O)OCCN2C(=O)c3ccccc3C2=O)c(C)o1 | > 100 | 28 | – | – | –
O=C(OCCN1C(=O)c2ccccc2C1=O)c1ccccc1Cl | > 100 | 80 | – | – | –
CC(COC(=O)c1cc(F)ccc1F)N1C(=O)c2ccccc2C1=O (racemic) | > 100 | > 100 | – | – | –
O=C(OCCN1C(=O)c2ccccc2C1=O)c1cc(F)ccc1Cl | > 100 | > 100 | – | – | –
O=C(OCCN1C(=O)c2ccccc2C1=O)c1cccc([N+](=O)[O-])c1 | > 100 | 69 | – | – | –
Cc1ccc(F)cc1C(=O)OCCN1C(=O)c2ccccc2C1=O | > 100 | 47 | – | – | –
